Patent publication US7776924B2, “Nitroaniline-based alkylating agents and their use as prodrugs” (Auckland Uniservices Limited, priority 2002, dated 2010)
Marks after values point to notes of the source that are not given here.

Tests used:
Type in all cases: cell-based
WIDR = test: Cytotoxicity in wild-type (NR−) human colon cell line WIDR
SC3.2 = test: Cytotoxicity in NTR-transfected (NR+) human ovarian cell line SC3.2; conditions: for IC50: SC3.2 NTR-transfected, 18 h exposure; for Ratio = IC50(NR−)/IC50(NR+) Human Ovarian: SKOV3 / SC3.2, 18 h exposure
SKOV3 = test: Cytotoxicity in wild-type (NR−) human ovarian cell line SKOV3
WC14.10 = test: Cytotoxicity in NTR-transfected (NR+) human colon cell line WC14.10; conditions: for IC50: WC14.10 NTR-transfected
[1] = tested on: A549 transfected with human cytochrome P450 reductase (P450R); test: Cytotoxicity in oxic and anoxic A549 cells transfected with human cytochrome P450 reductase; conditions: 4 h exposure
[2] = tested on: A549 human lung carcinoma cells; test: Cytotoxicity in oxic and anoxic wild-type A549 human lung carcinoma cells; conditions: 4 h exposure
[3] = Homo sapiens, SK-OV-3, 18 h exposure

Structure (SMILES) | Ratio = IC50(NR−)/IC50(NR+) Human Ovarian (SC3.2) | Ratio = IC50(NR−)/IC50(NR+) Human colon (WC14.10; WIDR / WC14.10, 18 h exposure) | IC50 (WIDR; 18 h exposure) [µM] | IC50 (SC3.2) [µM] | IC50 (SKOV3; 18 h exposure) [µM] | IC50 (WC14.10; 18 h exposure) [µM] | further results
NC(=O)c1cc(N(CCCl)CCBr)c([N+](=O)[O-])cc1[N+](=O)[O-] [IIa2, 5-[(2-Bromoethyl)(2-chloroethyl)amino]-2,4-dinitrobenzamide] | 280 | 235 | – | – | – | – | IC50 (WIDR; Homo sapiens, 18 h exposure): 150 µM; IC50 (SC3.2; Homo sapiens): 0.84 µM; IC50 (SKOV3; [3]): 226 µM; IC50 (WC14.10; Homo sapiens, 18 h exposure): 0.69 µM
CS(=O)(=O)OCCN(CCBr)c1cc(C(N)=O)c([N+](=O)[O-])cc1[N+](=O)[O-] [IIa3, 2-[5-(Aminocarbonyl)(2-bromoethyl)-2,4-dinitroanilino]ethyl methanesulfonate] | 715 | 387 | 80 | 0.19 | 135 | 0.22 | –
CS(=O)(=O)OCCN(CCI)c1cc(C(N)=O)c([N+](=O)[O-])cc1[N+](=O)[O-] [IIa4, 2-[5-(Aminocarbonyl)(2-iodoethyl)-2,4-dinitroanilino]ethyl methanesulfonate] | 311 | 172 | 70 | 0.33 | 97 | 0.41 | –
CS(=O)(=O)OCCN(CCBr)c1cc(C(=O)NCCCO)c([N+](=O)[O-])cc1[N+](=O)[O-] [IIa6, 2-((2-Bromoethyl)5-{[(3-hydroxypropyl)amino]carbonyl}-2,4-dinitroanilino)ethyl methanesulfonate] | – | 91 | 453 | – | – | 5 | P450R ratio = IC50(aerobic)/IC50(anoxic) [1]: 18; IC50 ([1]; anoxic): 31 µM; WT Ratio = IC50(aerobic)/IC50(anoxic) [2]: 2.4; IC50 ([2]; anoxic, read-out: IC50 WT anoxic): 348 µM
CS(=O)(=O)OCCN(CCBr)c1cc(C(=O)NCC(O)CO)c([N+](=O)[O-])cc1[N+](=O)[O-] (stereo not drawn) [IIa7, 2-((2-Bromoethyl)-5-{[(2,3-dihydroxypropyl)amino]carbonyl}-2,4-dinitroanilino)ethyl methanesulfonate] | – | 268 | 804 | 1.74 | 1110 | 3 | –
CS(=O)(=O)OCCN(CCCl)c1c(C(N)=O)cc([N+](=O)[O-])cc1[N+](=O)[O-] [IIb1, 2-[2-(Aminocarbonyl)(2-chloroethyl)-4,6-dinitroanilino]ethyl methanesulfonate] | 1890 | 303 | 20 | 0.04 | 80 | 0.07 | –
CS(=O)(=O)OCCN(CCBr)c1c(C(N)=O)cc([N+](=O)[O-])cc1[N+](=O)[O-] [IIb2, 2-[2-(Aminocarbonyl)(2-bromoethyl)-4,6-dinitroanilino]ethyl methanesulfonate] | 762 | 227 | 4.3 | 0.007 | 6 | 0.02 | –
CS(=O)(=O)OCCN(CCBr)c1c(C(=O)NCC(O)CO)cc([N+](=O)[O-])cc1[N+](=O)[O-] (stereo not drawn) [IIb6, 2-((2-Bromoethyl)-2-{[(2,3-dihydroxypropyl)amino]carbonyl}-4,6-dinitroanilino)ethyl methanesulfonate] | 140 | 52 | 11 | 0.19 | 26 | 0.21 | –
CS(=O)(=O)OCCN(CCBr)c1c(C(=O)NCCCN2CCOCC2)cc([N+](=O)[O-])cc1[N+](=O)[O-] [IIb7, 2-[(2-Bromoethyl)-2-({[3-(4-morpholinyl)propyl]amino}carbonyl)-4,6-dinitroanilino]ethyl methanesulfonate] | 102 | 22 | 0.89 | 0.03 | 3.1 | 0.05 | –
COC(=O)CCNC(=O)c1cc([N+](=O)[O-])cc([N+](=O)[O-])c1N(CCBr)CCOS(C)(=O)=O [IIb9, Methyl 3-{[2-((2-bromoethyl){2-[(methylsulfonyl)oxy]ethyl}amino)-3,5-dinitrobenzoyl]amino}propanoate] | 25 | 6.3 | – | – | – | – | IC50 (WIDR; Homo sapiens, 18 h exposure): 1.44 µM; IC50 (SC3.2; Homo sapiens): 0.15 µM; IC50 (SKOV3; [3]): 3.7 µM; IC50 (WC14.10; Homo sapiens, 18 h exposure): 0.24 µM
CS(=O)(=O)OCCN(CCCl)c1ccc([N+](=O)[O-])c(C(N)=O)c1[N+](=O)[O-] [IIc1, 2-[3-(Aminocarbonyl)(2-chloroethyl)-2,4-dinitroanilino]ethyl methanesulfonate] | 390 | 120 | 121 | 0.55 | 196 | 1 | –
CS(=O)(=O)OCCN(CCBr)c1c([N+](=O)[O-])ccc(C(N)=O)c1[N+](=O)[O-] [IIc2, 2-[3-(Aminocarbonyl)(2-bromoethyl)-2,6-dinitroanilino]ethyl methanesulfonate] | 724 | 271 | 85 | 0.21 | 150 | 0.31 | –
CS(=O)(=O)OCCN(CCBr)c1c([N+](=O)[O-])ccc(C(=O)NCCCCO)c1[N+](=O)[O-] [IIc6, 2-((2-Bromoethyl)-3-{[(4-hydroxybutyl)amino]carbonyl}-2,6-dinitroanilino)ethyl methanesulfonate] | – | – | – | – | – | – | IC50 (WIDR; 4 h exposure): 314 µM; IC50 (WC14.10; 4 h exposure): 20 µM; Ratio = IC50(NR−)/IC50(NR+) Human colon (WC14.10; WIDR / WC14.10, 4 h exposure): 16^f
CS(=O)(=O)OCCN(CCCl)c1ccc([N+](=O)[O-])c(C(=O)NCC(O)CO)c1[N+](=O)[O-] (stereo not drawn) [IIc7, 2-((2-Chloroethyl)-3-{[(2,3-dihydroxypropyl)amino]carbonyl}-2,4-dinitroanilino)ethyl methanesulfonate] | 267 | 262 | 856 | 6.6 | 1680 | 4.3 | –
CS(=O)(=O)OCCN(CCBr)c1ccc([N+](=O)[O-])c(C(=O)NCC(O)CO)c1[N+](=O)[O-] (stereo not drawn) [IIc8, 2-((2-Bromoethyl)-3-{[(2,3-dihydroxypropyl)amino]carbonyl}-2,4-dinitroanilino)ethyl methanesulfonate] | 509 | 141 | 214 | 1.8 | 890 | 1.5 | –
CS(=O)(=O)OCCN(CCCl)c1ccc([N+](=O)[O-])c(C(=O)NCCCN2CCOCC2)c1[N+](=O)[O-] [IIc9, 2-[(2-Chloroethyl)-3-({[3-(4-morpholinyl)propyl]amino}carbonyl)-2,4-dinitroanilino]ethyl methanesulfonate] | 14 | 8.3 | 262 | 32 | 433 | 31 | –
CS(=O)(=O)OCCN(CCBr)c1ccc([N+](=O)[O-])c(C(=O)NCCCN2CCOCC2)c1[N+](=O)[O-] [IIc10, 2-[(2-Bromoethyl)-3-({[3-(4-morpholinyl)propyl]amino}carbonyl)-2,4-dinitroanilino]ethyl methanesulfonate] | 14 | 8.2 | 94 | 11 | 156 | 11 | –
